Results published in patent US20250049776A1, “AUTOPHAGY INDUCING COMPOUNDS AND USES THEREOF, IN PARTICULAR FOR A SYSTEMIC TREATMENT OF DISEASES AND CONDITIONS” (Samsara Therapeutics Inc., priority 2021, published 2025).
Read-outs that look alike come from different tables or passages of the source.

System: Human osteosarcoma U20S cells
Assay: Assay to measure lysosome and autolysosome formation (acidic vesicle formation, LysoView/LysoTracker staining)
Type: cell-based
Conditions: for activation at 0.8 µM: Homo sapiens; for increase in acidic vesicle formation: relative to DMSO-treated control (10 μM)
Description: Lysosomes play a fundamental role in the autophagic pathway by fusing with autophagosomes and creating ‘autolysosomes’ in order to digest their contents. Stimulation of lysosome and autolysosome formation by a compound is indicative of a stimulation of autophagy. The ability of compounds to stimulate lysosome and autolysosome formation, and thus autophagy, in live cells was assessed via fluorescent microscopy using various fluorescent stains for labelling and tracking acidic organelles (including lysosomes and autolysosomes) such as: LysoView™ 650 (70059 and 70059-T, Biotium), LysoViewTM633 (70058 and 70058-T, Biotium) and LysoTracker™ Deep Red (L12492, ThermoFisher Scientific). The cellular phenotype was quantitatively assessed for the induction of acidic vesicle formation and compared to a non-treated control, thus providing a measure of the ability of the compound under investigation to stimulate autophagy.
Representative procedure using LysoView™633 dye or LysoTracker™ Deep Red dye: Human osteosarcoma U20S cells (40,000 cells/well) were seeded in a 24 well glass bottom plate (Sensoplate, Greiner Bio-One) and were incubated overnight in a humidified atmosphere at 37° C. and 5% CO2. Cells were grown in DMEM (Gibco) supplemented with 10% Fetal Bovine Serum (FBS) and 100 units/ml penicillin and 100 μg/ml streptomycin (Invitrogen). After the attachment period, cells were treated with different compounds of interest (at various concentrations in DMSO) or DMSO (non-treated control) in cell culture medium and were incubated for 24 hours. Compound-containing medium was removed and cells were incubated with pre-warmed cell culture medium containing 1× LysoView™ 633 (70058 and 70058-T, Biotium) or 50 nM LysoTracker™ Deep Red (L12492, ThermoFisher Scientific) for 45 minutes at 37° C. Finally, cell nuclei were stained for 10 minutes using Hoechst 33342 (1 μg/mL) and then the medium was replaced with fresh medium. The 24 well plate was then fitted into a heated stage on the microscope and cells maintained at 37° C. Images were captured using appropriate filter set for Cy5 and DAPI detection with the EVOS M7000 Microscope (ThermoFisher Scientific). The cellular phenotype was visually assessed for the induction of acidic vesicle formation relative to the non-treated control; multiple images were acquired and analyzed using ImageJ or Cell Profiler.

[1] = U2OS cells, concentration of 0.8 μM, read-out: Activity (percentage increase in acidic vesicle formation over the DMSO-treated control), Table 2
[2] = U2OS cells, concentration of 0.8 μM, read-out: Activity (percentage increase in acidic vesicle formation), Table 2a Preferred compounds

Row | Compound | activation at 0.8 µM [1] | also measured
1 | CCCN(C(=O)c1ccc(-c2cnn(-c3ccccc3)c2)o1)[C@@H]1CCNC1 [Compound 99, 5-(1-phenyl-1H-pyrazol-4-yl)-N-propyl-N-[(3R)-pyrrolidin-3-yl]furan-2-carboxamide] | 50 to 100% | activation at 0.8 µM [2]: 50 to 100%
2 | CC(C)N(C(=O)c1csc(-c2cnn(-c3ccccc3F)c2)n1)C1CCNCC1 [Compound 95, 2-[1-(2-fluorophenyl)-1H-pyrazol-4-yl]-N-(piperidin-4-yl)-N-(propan-2-yl)-1,3-thiazole-4-carboxamide] | 50 to 100% | activation at 0.8 µM [2]: 50 to 100%
3 | CCCN(C(=O)c1csc(-c2cnn(-c3ccc(OC(F)(F)F)cc3)c2)n1)[C@H]1CCNC1 [Compound 45, N-propyl-N-[(3S)-pyrrolidin-3-yl]-2-{1-[4-(trifluoromethoxy)phenyl]-1H-pyrazol-4-yl}-1,3-thiazole-4-carboxamide] | 30 to 50% | –
4 | CCCN(C(=O)c1csc(-c2cnn(-c3ccc(OC(F)(F)F)cc3)c2)n1)[C@@H]1CCNC1 [Compound 46, N-propyl-N-[(3R)-pyrrolidin-3-yl]-2-{1-[4-(trifluoromethoxy)phenyl]-1H-pyrazol-4-yl}-1,3-thiazole-4-carboxamide] | 30 to 50% | –
5 | CCCN(C(=O)c1csc(-c2cnn(-c3cccc(C(F)(F)F)c3)c2)n1)[C@H]1CCNC1 [Compound 48, N-propyl-N-[(3S)-pyrrolidin-3-yl]-2-{1-[3-(trifluoromethyl)phenyl]-1H-pyrazol-4-yl}-1,3-thiazole-4-carboxamide] | 50 to 100% | activation at 0.8 µM [2]: 50 to 100%
6 | O=C(NC[C@@H]1CCNC1)c1cc(-c2cnn(-c3ccccc3)c2)cs1 [Compound 16, 4-(1-phenyl-1H-pyrazol-4-yl)-N-{[(3R)-pyrrolidin-3-yl]methyl}thiophene-2-carboxamide] | 10 to 30% | –
7 | CCCN(C(=O)c1csc(-c2ccc(-c3ccccc3)s2)n1)[C@H]1CCNC1 [Compound 69, 2-(5-phenylthiophen-2-yl)-N-propyl-N-[(3S)-pyrrolidin-3-yl]-1,3-thiazole-4-carboxamide] | 30 to 50% | –
8 | CCCN(C(=O)c1csc(-c2ccc(-c3ccccc3)s2)n1)C1CCNC1 (stereo not shown) [Compound 122, 2-(5-phenylthiophen-2-yl)-N-propyl-N-(pyrrolidin-3-yl)-1,3-thiazole-4-carboxamide] | > 100% | activation at 0.8 µM [2]: 50 to 100%; Activity (percentage increase in acidic vesicle formation), Table 2b More preferred compounds (U2OS cells, concentration of 0.8 μM): ++++ (a percentage increase in acidic vesicle of greater than 100% over the DMSO-treated control)
9 | CC(C)N(C(=O)c1cc(-c2cnn(-c3ccccc3)c2)c[nH]1)[C@@H]1CCNC1 [Compound 334, 4-(1-phenyl-1H-pyrazol-4-yl)-N-(propan-2-yl)-N-[(3R)-pyrrolidin-3-yl]-1H-pyrrole-2-carboxamide] | 30 to 50% | increase in acidic vesicle formation (U20S cells): only a slight increase
10 | CCCN(C(=O)c1cc(-c2cnn(-c3ccccc3)c2)cs1)C1CCNC1 (stereo not shown) [Compound 141, 4-(1-phenyl-1H-pyrazol-4-yl)-N-propyl-N-(pyrrolidin-3-yl)thiophene-2-carboxamide] | 50 to 100% | activation at 0.8 µM [2]: 50 to 100%
11 | CCCN(C(=O)c1csc(-c2cnn(-c3cccc(C(F)(F)F)c3)c2)n1)[C@@H]1CCNC1 [Compound 49, N-propyl-N-[(3R)-pyrrolidin-3-yl]-2-{1-[3-(trifluoromethyl)phenyl]-1H-pyrazol-4-yl}-1,3-thiazole-4-carboxamide] | 30 to 50% | –
12 | CCCN(C(=O)c1csc(-c2cnn(-c3ccccc3C(F)(F)F)c2)n1)[C@H]1CCNC1 [Compound 82, N-propyl-N-[(3S)-pyrrolidin-3-yl]-2-{1-[2-(trifluoromethyl)phenyl]-1H-pyrazol-4-yl}-1,3-thiazole-4-carboxamide] | 30 to 50% | –
13 | CCCN(C(=O)c1csc(-c2cnn(-c3ccncc3)c2)n1)[C@@H]1CCNC1 [Compound 23, N-propyl-2-[1-(pyridin-4-yl)-1H-pyrazol-4-yl]-N-[(3R)-pyrrolidin-3-yl]-1,3-thiazole-4-carboxamide] | 10 to 30% | –
14 | O=C(NCC1CCNCC1)c1cc(-c2cnn(-c3ccccc3)c2)cs1 [Compound 111, 4-(1-phenyl-1H-pyrazol-4-yl)-N-[(piperidin-4-yl)methyl]thiophene-2-carboxamide] | 30 to 50% | –
15 | N[C@@H]1CCCN(C(=O)c2csc(-c3cnn(-c4ccccc4)c3)n2)C1 [Compound 143, (3R)-1-[2-(1-phenyl-1H-pyrazol-4-yl)-1,3-thiazole-4-carbonyl]piperidin-3-amine] | 10 to 30% | –
16 | CC(C)N(C(=O)c1csc(-c2cnn(-c3ccccc3Cl)c2)n1)C1CCNCC1 [Compound 66, 2-[1-(2-chlorophenyl)-1H-pyrazol-4-yl]-N-(piperidin-4-yl)-N-(propan-2-yl)-1,3-thiazole-4-carboxamide] | 10 to 30% | –
17 | CCCN(C(=O)c1ccc(-c2cnn(-c3ccccc3)c2)o1)C1CCNC1 (stereo not shown) [Compound 140, 5-(1-phenyl-1H-pyrazol-4-yl)-N-propyl-N-(pyrrolidin-3-yl)furan-2-carboxamide] | 10 to 30% | –
18 | CCCN(C(=O)c1csc(-c2cnn(-c3ccc(C)cc3)c2)n1)[C@@H]1CCNC1 [Compound 65, 2-[1-(4-methylphenyl)-1H-pyrazol-4-yl]-N-propyl-N-[(3R)-pyrrolidin-3-yl]-1,3-thiazole-4-carboxamide] | 30 to 50% | –
19 | CCCN(C(=O)c1csc(-c2cnc(-c3ccccc3)o2)n1)C1CCNC1 (stereo not shown) [Compound 116, 2-(2-phenyl-1,3-oxazol-5-yl)-N-propyl-] | 50 to 100% | activation at 0.8 µM [2]: 50 to 100%
20 | CCCN(C(=O)c1csc(-c2cnn(-c3ccccc3Cl)c2)n1)[C@@H]1CCNC1 [Compound 90, 2-[1-(2-chlorophenyl)-1H-pyrazol-4-yl]-N-propyl-N-[(3R)-pyrrolidin-3-yl]-1,3-thiazole-4-carboxamide] | 10 to 30% | –
21 | N[C@H]1CCCN(C(=O)c2csc(-c3cnn(-c4ccccc4)c3)n2)C1 [Compound 142, (3S)-1-[2-(1-phenyl-1H-pyrazol-4-yl)-1,3-thiazole-4-carbonyl]piperidin-3-amine] | 10 to 30% | –
22 | CCCN(C(=O)c1ccc(-c2cnn(-c3ccccc3)c2)[nH]1)C1CCNC1 (stereo not shown) [Compound 120, 5-(1-phenyl-1H-pyrazol-4-yl)-N-propyl-N-(pyrrolidin-3-yl)-1H-pyrrole-2-carboxamide] | 50 to 100% | activation at 0.8 µM [2]: 50 to 100%
23 | CCCN(C(=O)c1csc(-c2cnn(-c3ccc(F)cc3)c2)n1)[C@@H]1CCNC1 [Compound 54, 2-[1-(4-fluorophenyl)-1H-pyrazol-4-yl]-N-propyl-N-[(3R)-pyrrolidin-3-yl]-1,3-thiazole-4-carboxamide] | 10 to 30% | –
24 | O=C(c1csc(-c2cnn(-c3ccccc3)c2)n1)N1CCNCC1 [Compound 104, 1-[2-(1-phenyl-1H-pyrazol-4-yl)-1,3-thiazole-4-carbonyl]piperazine] | 10 to 30% | –
25 | CCCN(C(=O)c1csc(-c2cnn(-c3ccccc3)c2)c1)C1CCNC1 (stereo not shown) [Compound 130, 5-(1-phenyl-1H-pyrazol-4-yl)-N-propyl-N-(pyrrolidin-3-yl)thiophene-3-carboxamide] | 10 to 30% | –
26 | Cc1ccccc1-n1cc(-c2nc(C(=O)N(C(C)C)C3CCNCC3)cs2)cn1 [Compound 84, 2-[1-(2-methylphenyl)-1H-pyrazol-4-yl]-N-(piperidin-4-yl)-N-(propan-2-yl)-1,3-thiazole-4-carboxamide] | 10 to 30% | –
27 | COc1cccc(-n2cc(-c3nc(C(=O)N4CCC[C@@H]4CN)cs3)cn2)c1 [Compound 50, 1-[(2R)-1-{2-[1-(3-methoxyphenyl)-1H-pyrazol-4-yl]-1,3-thiazole-4-carbonyl}pyrrolidin-2-yl]methanamine] | 50 to 100% | activation at 0.8 µM [2]: 50 to 100%
28 | CC(C)N(C(=O)c1csc(-c2cnn(-c3ccccc3)c2)n1)C1C2CNCC1C2 (stereo not shown) [Compound 317, N-{3-azabicyclo[3.1.1]heptan-6-yl}-2-(1-phenyl-1H-pyrazol-4-yl)-N-(propan-2-yl)-1,3-thiazole-4-carboxamide] | – | acidic vesicle formation relative to a DMSO-treated control (U20S cells, concentration of 10 μM, 24 hours): only a slight increase; increase in acidic vesicle formation (U20S cells): only a slight increase
29 | CCCN(C(=O)c1csc(-c2cnn(-c3ccc(F)cc3)c2)n1)[C@H]1CCNC1 [Compound 58, 2-[1-(4-fluorophenyl)-1H-pyrazol-4-yl]-N-propyl-N-[(3S)-pyrrolidin-3-yl]-1,3-thiazole-4-carboxamide] | 10 to 30% | –
